From patent US7691889B2, “Antimycobacterial compounds” (Lupin Limited, priority 2002, dated 2010)
Values after ≈ are worked out from the molar mass of the structure shown. Like-named read-outs stand apart in the source and are kept apart here.

Legend:
[1] = test system: M. tuberculosis 27294; experiment: In vitro agar dilution assay (MIC), reference strain; type: cell-based, Mycobacterium tuberculosis
[2] = test system: M. tuberculosis clinical isolates, sensitive; experiment: microbe, parasite or virus in culture; type: cell-based, Mycobacterium tuberculosis; details: for MIC: Mycobacterium tuberculosis
[3] = test system: M. fortuitum; experiment: In vitro agar dilution assay (MIC), M. fortuitum; type: cell-based; details: Table II
[4] = test system: M. kansai; experiment: In vitro agar dilution assay (MIC), M. kansai; type: cell-based; details: Table II
[5] = Acute toxicity in mice; type: in vivo; details: P. O.
[6] = test system: M. tuberculosis ATCC 27294 infection; experiment: Murine model of pulmonary tuberculosis; details: for Mean Log10 No. of CFU Lung / Mean Log10 No. of CFU Spleen: 5 day/week for 4 weeks, mice; for Mean Log10 No. of reduction Lung / Mean Log10 No. of reduction Spleen: difference from early controls

SMILES | Mean Log10 No. of CFU Lung ([6]; 12.5 mg/kg by gavage) | Mean Log10 No. of CFU Spleen ([6]; 12.5 mg/kg by gavage) | Mean Log10 No. of reduction Lung ([6]; 12.5 mg/kg) | Mean Log10 No. of reduction Spleen ([6]; 12.5 mg/kg) | Mean Log10 No. of CFU Lung ([6]; 25 mg/kg by gavage) | Mean Log10 No. of CFU Spleen ([6]; 25 mg/kg by gavage) | Mean Log10 No. of reduction Lung ([6]; 25 mg/kg) | Mean Log10 No. of reduction Spleen ([6]; 25 mg/kg) | Mean Log10 No. of CFU Lung ([6]; 50 mg/kg by gavage) | Mean Log10 No. of CFU Spleen ([6]; 50 mg/kg by gavage) | Mean Log10 No. of reduction Lung ([6]; 50 mg/kg) | Mean Log10 No. of reduction Spleen ([6]; 50 mg/kg) | also measured
O=C(CCC(=O)c1ccc2ccccc2c1)NC[C@H]1CN(c2ccc([N+]3([O-])CCOCC3)c(F)c2)C(=O)O1 [Compound 30, (S)-N-[[3-(3-fluoro-4-morpholinylphenyl)-2-oxo-5-oxazolidinyl]methyl]-4-(4-2-naphthyl)-4-oxobutanamide-N-oxide] | 4.34 | 4.30 | 0.20 | 0.26 | 2.21 | 2.13 | 2.30 | 2.49 | 2.12 | 2.09 | 2.40 | 2.53 | MIC against M. tuberculosis 27294 ([1]; Middlebrook 7H10): 0.5 µg/mL (≈ 0.959 µM); MIC against Clinical isolates Sensitive ([2]; Table I, agar dilution): 0.5 µg/mL (≈ 0.959 µM); MIC M. tuberculosis Sensitive ([2]; Table II): 0.50 µg/mL (≈ 0.959 µM); MIC M. fortuitum [3]: >16.0 µg/mL; MIC M. kansai [4]: 8.0 µg/mL (≈ 15.3 µM); LD0 (acute toxicity) [5]: > 1000 mg/kg
NNC(=O)c1ccncc1 [Isoniazid, reference compound] | 2.95 | 2.94 | 1.57 | 1.68 | 2.11 | 2.11 | 2.41 | 2.51 | 2.03 | 1.92 | 2.49 | 2.70 | MIC ([1]; Mycobacterium tuberculosis, 27294, Middlebrook 7H10, read-out: MIC against M. tuberculosis 27294): 0.25 µg/mL (≈ 1.82 µM); MIC ([2]; read-out: MIC M. tuberculosis Sensitive): 0.25 µg/mL (≈ 1.82 µM); MIC ([2]; read-out: MIC against Clinical isolates Sensitive): 0.12 to 0.25 µg/mL (≈ 0.875 to 1.82 µM); MIC ([3]; Mycolicibacterium fortuitum): > 16 µg/mL; MIC [4]: > 16 µg/mL
